The source of these data is US20260265238A1, “COMPOUNDS AND PHARMACEUTICAL COMPOSITIONS THAT DEGRADE SWI/SNF-RELATED MATRIX-ASSOCIATED ACTIN-DEPENDENT REGULATOR OF CHROMATIN SUBFAMILY A” (Plexium, Inc., priority 2023, published 2026).

Assay [1] has as its target T1, SMARCA2-HiBiT HeLa cells (protein which is expressed from the SMARCA2 gene) (Homo sapiens, UniProt P51531).
T1 construct: protein which is expressed from the SMARCA2 and SMARCA4 genes; host or cells: HeLa (SMARCA2-HiBiT engineered line)
The assay can be described thus: SMARCA2 degradation assay (HiBiT-fusion HeLa cell line, 24 h, luminescence). It counts as cell-based. A digest of the protocol: (§1)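 In this 24-hour cellular degradation readout, HiBiT-tagged HeLa lines received compound at up to typically 10 μM down to 300 pM in 10 points. After lysis with LgBiT and substrate, luminescence signals were used to build dose-response curves for DC50.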

Assay [2] has as its target T2, SMARCA4-HiBiT HeLa cells (protein which is expressed from the SMARCA4 gene) (Homo sapiens, UniProt P51532).
T2 construct: protein which is expressed from the SMARCA2 and SMARCA4 genes; host or cells: HeLa (SMARCA4-HiBiT engineered line)
The assay can be described thus: SMARCA4 degradation assay (HiBiT-fusion HeLa cell line, 24 h, luminescence). It counts as cell-based. A digest of the protocol:
as §1
For orientation: With HiBiT, luminescence reflects the tagged protein that the partner subunit can reach.

T2 sequence (P51532 whole entry): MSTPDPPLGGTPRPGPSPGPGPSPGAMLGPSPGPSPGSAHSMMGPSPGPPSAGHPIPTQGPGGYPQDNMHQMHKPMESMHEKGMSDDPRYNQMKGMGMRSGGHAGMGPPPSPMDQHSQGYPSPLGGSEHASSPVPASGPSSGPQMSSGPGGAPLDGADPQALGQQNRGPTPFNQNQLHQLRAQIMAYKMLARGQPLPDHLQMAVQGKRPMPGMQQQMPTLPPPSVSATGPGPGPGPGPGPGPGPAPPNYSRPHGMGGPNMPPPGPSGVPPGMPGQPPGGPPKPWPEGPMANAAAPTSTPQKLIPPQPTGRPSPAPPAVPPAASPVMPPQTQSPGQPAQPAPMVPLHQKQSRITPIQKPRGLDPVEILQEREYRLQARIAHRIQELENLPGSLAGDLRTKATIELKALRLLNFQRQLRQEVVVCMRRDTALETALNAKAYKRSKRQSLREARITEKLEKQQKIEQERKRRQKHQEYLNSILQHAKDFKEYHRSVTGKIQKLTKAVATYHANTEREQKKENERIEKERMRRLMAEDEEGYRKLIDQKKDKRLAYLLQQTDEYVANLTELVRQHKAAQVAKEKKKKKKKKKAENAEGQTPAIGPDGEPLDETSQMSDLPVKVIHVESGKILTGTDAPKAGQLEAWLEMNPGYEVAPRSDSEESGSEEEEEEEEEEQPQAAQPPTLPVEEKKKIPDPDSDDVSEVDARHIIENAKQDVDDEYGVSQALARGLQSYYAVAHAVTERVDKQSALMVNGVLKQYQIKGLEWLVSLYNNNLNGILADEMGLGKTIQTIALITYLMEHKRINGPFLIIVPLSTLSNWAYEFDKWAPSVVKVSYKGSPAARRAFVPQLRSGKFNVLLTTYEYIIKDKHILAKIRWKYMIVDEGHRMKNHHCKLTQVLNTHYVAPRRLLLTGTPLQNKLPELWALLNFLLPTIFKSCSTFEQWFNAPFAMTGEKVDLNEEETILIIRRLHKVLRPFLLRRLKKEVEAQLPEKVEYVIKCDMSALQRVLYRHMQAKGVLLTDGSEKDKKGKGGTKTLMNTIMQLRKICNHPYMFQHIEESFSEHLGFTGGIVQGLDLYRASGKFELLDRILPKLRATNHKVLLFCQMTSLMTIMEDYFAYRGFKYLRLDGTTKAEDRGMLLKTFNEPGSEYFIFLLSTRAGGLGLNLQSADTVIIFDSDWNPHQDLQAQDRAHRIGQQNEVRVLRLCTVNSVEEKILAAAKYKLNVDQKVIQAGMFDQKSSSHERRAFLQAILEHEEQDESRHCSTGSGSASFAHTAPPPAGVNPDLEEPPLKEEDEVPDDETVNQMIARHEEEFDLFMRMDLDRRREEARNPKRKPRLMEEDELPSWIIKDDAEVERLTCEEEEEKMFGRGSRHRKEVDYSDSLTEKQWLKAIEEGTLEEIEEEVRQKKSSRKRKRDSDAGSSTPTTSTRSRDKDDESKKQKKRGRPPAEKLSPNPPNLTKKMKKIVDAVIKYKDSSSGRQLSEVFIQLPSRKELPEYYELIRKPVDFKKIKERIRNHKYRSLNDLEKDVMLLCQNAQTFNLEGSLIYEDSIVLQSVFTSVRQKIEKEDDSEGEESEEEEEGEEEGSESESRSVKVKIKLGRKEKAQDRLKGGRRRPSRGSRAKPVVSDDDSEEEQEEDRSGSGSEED
T1 sequence (P51531 whole entry): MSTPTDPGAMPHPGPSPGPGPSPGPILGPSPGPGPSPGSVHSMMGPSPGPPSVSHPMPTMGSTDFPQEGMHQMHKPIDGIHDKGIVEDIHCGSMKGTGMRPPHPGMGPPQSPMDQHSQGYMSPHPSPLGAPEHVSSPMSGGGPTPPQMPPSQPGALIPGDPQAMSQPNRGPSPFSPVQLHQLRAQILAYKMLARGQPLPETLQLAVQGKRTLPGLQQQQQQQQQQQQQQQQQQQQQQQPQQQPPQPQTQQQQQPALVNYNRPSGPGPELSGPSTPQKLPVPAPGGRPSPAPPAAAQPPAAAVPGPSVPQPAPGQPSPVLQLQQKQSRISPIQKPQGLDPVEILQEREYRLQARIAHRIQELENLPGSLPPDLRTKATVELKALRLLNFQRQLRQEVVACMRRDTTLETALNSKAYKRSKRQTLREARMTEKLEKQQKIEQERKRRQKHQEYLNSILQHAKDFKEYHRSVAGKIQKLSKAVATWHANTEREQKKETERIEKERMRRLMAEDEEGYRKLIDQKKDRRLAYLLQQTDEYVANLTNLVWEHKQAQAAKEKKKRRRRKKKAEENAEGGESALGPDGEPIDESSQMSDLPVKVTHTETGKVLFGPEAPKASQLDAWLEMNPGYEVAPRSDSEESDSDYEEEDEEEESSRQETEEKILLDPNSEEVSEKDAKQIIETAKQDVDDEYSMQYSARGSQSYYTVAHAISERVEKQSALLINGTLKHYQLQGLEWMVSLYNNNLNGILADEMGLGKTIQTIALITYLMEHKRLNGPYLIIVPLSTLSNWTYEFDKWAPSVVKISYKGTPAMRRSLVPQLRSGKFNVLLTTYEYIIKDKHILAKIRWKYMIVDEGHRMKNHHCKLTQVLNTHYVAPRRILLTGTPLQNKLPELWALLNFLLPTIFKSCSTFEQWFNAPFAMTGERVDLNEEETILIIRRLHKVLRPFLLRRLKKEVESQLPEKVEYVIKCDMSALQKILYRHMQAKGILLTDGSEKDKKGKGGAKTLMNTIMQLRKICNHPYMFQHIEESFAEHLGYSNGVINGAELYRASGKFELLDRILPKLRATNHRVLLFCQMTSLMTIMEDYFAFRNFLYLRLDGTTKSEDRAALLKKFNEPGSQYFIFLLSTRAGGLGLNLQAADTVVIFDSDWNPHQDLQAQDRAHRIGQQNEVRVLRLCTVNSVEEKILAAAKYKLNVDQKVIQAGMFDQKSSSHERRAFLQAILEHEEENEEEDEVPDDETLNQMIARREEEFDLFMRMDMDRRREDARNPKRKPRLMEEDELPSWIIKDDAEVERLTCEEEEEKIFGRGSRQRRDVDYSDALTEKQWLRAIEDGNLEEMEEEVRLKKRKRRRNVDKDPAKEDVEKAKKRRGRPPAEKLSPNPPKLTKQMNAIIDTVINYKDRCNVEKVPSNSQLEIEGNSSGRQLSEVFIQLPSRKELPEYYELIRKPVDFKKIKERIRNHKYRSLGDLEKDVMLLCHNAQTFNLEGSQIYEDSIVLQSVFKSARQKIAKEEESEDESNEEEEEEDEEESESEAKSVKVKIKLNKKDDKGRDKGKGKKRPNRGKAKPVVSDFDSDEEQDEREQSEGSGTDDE

One may read the DC50 as the concentration giving 50% degradation. Read a low DC50 as degradation at low concentration. One may read the inhibition as the change of the read-out against control, counted positive when it falls. Low readings indicate little suppression, high ones strong suppression. For the compound `C[C@@H]1CCN(c2cc(-c3ccccc3O)nnc2N)CCN1c1ccnc(C#CCN2CC(F)(F)C2)n1` [Compound P-252, o-{5-[(R)-4-{2-[3-(3,3-difluoro-1-azetidinyl)-1-propynyl]-4-pyrimidinyl}-5-methyl-1,4-diazepan-1-yl]-6-amino-3-pyridazinyl}phenol], in assay [1], the DC50 was in the range of 50 to 500 nM and the “SMARCA2 % Degradation @ 1 μM” value was “++ (++=30-70%)”. Moreover, in assay [2], the DC50 lay within 50 to 500 nM and the inhibition at 1 µM lay in the range of 30 to 70%.
In the case of `C[C@@H]1CCN(c2cc(-c3ccccc3O)nnc2N)CCN1c1ccnc(C#CCn2ccnc2)n1` [Compound P-298, 0-{5-[(R)-4-{2-[3-(1-imidazolyl)-1-propynyl]-4-pyrimidinyl}-5-mcthyl-1,4-diazepan-1-yl]-6-amino-3-pyridazinyl}phenol], in assay [1], the half-maximal degradation concentration (DC50) lay within 50 to 500 nM and the “SMARCA2 % Degradation @ 1 μM” value is reported as “+++ (+++=>70%)”. Further, in assay [2], the 50% degradation concentration (DC50) is 50 to 500 nM and the inhibition at 1 µM is 30 to 70%.
With `C[C@@H]1CCN(c2cc(-c3ccccc3O)nnc2N)CCN1c1ccnc(/C=C/C2CC2)n1` [Compound P-171, o-(5-{(R)-4-[2-(2-cyclopropylethenyl)-4-pyrimidinyl]-5-methyl-1,4-diazepan-1-yl}-6-amino-3-pyridazinyl)phenol], in assay [1], the 50% degradation concentration (DC50) lay within 50 to 500 nM and the “SMARCA2 % Degradation @ 1 μM” value is recorded as “++ (++=30-70%)”. In assay [2], the DC50 was in the range of 500 to 5000 nM and the inhibition at 1 µM was under 30%.
